Laboratory results reported in ChEMBL document CHEMBL6083268, “Discovery of BAY 2413555, First Selective Positive Allosteric Modulator of the M2 Receptor to Restore Cardiac Autonomic Balance” (J Med Chem, 2024).
Converted amounts (≈) assume the structure as drawn.

Tests used:
[1] = target: T1, Muscarinic acetylcholine receptor M2 (Homo sapiens, UniProt P08172); experiment: Displacement of [3H]7-[(3R,4R)-3,4-Dihydroxypyrrolidin-1-yl]-6-fluoro-4-oxo-N-[3,3,4,4,4-pentafluorobutan-2-yl]-1-(2,4,6-trifluorophenyl)-1,4-dihydro-1,8-naphthyridine-3-carboxamide from human M2 muscarinic acetylcholine receptor expressed in CHO-S cells in presence of acetylcholine by competitive radioligand binding assay; format: cell-based
T1 sequence (P08172 whole entry): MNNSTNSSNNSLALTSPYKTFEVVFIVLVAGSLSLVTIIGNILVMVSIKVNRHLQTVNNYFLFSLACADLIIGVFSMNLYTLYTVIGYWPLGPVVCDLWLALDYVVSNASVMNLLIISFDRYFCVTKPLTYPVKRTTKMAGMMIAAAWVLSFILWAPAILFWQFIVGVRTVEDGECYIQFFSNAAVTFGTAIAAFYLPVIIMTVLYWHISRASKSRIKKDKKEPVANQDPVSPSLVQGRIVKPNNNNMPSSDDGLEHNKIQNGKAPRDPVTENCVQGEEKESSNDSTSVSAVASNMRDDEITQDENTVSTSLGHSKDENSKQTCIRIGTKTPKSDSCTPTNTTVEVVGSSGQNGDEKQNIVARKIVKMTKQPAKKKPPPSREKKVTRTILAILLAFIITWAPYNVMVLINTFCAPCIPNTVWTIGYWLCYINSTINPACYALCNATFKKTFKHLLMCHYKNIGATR

[2] = target: T1, Muscarinic acetylcholine receptor M2
[3] = Intrinsic clearance in rat hepatocytes measured for 90 mins by LC-MS/MS analysis; format: ADME, cell-based, Hepatocyte; conditions: read-out: CLH (converted)
[4] = Solubility of the compound in PBS buffer at pH 6.5 measured after 24 hrs by LC-MS/MS analysis; format: physicochemical
[5] = Apparent permeability of the compound across apical to basolateral sides in human Caco-2 cells at 2 uM measured after 2 hrs by LC-MS/MS analysis; format: ADME, cell-based
[6] = Blood clearance in Wistar rat at 0.3 mg/kg, iv administered as bolus dose by LC-MS analysis; format: ADME, organism-based
[7] = Volume of distribution at steady state in Wistar rat at 0.3 mg/kg, iv administered as bolus dose by LC-MS analysis; format: ADME, organism-based; conditions: in vivo, read-out: Vdss
[8] = Half-life in Wistar rat at 0.3 mg/kg, iv administered as bolus dose by LC-MS analysis; format: ADME, organism-based; conditions: in vivo
[9] = Fraction unbound in rat plasma; format: ADME, cell-free
[10] = Fraction unbound in human plasma; format: ADME, cell-free
[11] = Efflux ratio of apparent permeability across basal to apical membrane over apical to basal membrane in human Caco-2 cells at 2 uM measured after 2 hrs by LC-MS/MS analysis
[12] = Oral bioavailability in Wistar rat at 1 mg/kg by LC-MS analysis; format: ADME, organism-based; conditions: in vivo
[13] = Tmax in Wistar rat at 1 mg/kg, po by LC-MS/MS analysis; format: ADME, organism-based; conditions: in vivo
[14] = Half life in Wistar rat at 1 mg/kg, po by LC-MS/MS analysis; format: ADME, organism-based; conditions: in vivo

Structure (SMILES)	predicted hepatic blood clearance at […] [3]	solubility at 24 h [4]	Papp A→B at 2 h, 2 µM [5]	clearance [6]	Vd [7]	half-life [8]	also measured
COc1nc2sc(C(=O)NC3CC3)c(N)c2c(C)c1Cl							Ki [1]: 3000 nM; EC50 [2]: 2400 nM
O=C(NC12CC3CC(CC(C3)C1)C2)c1cn(-c2ccc(F)cc2F)c2nc(N3CCCC3=O)ccc2c1=O	60 mL/min/kg						
CC[C@H](NC(=O)c1cn(-c2c(F)cc(F)cc2F)c2nc(N3C[C@@H](O)[C@H](O)C3)ccc2c1=O)C(F)(F)F	21.7 mL/min/kg	13 µg/mL (≈ 24.5 µM)	1.2 ×10⁻⁶ cm/s	25 mL/min/kg	3.5 L/kg	1.6 h	
CN(C)c1ccc2c(=O)c(C(=O)NC34CC5CC(CC(C5)C3)C4)cn(-c3ccc(F)cc3F)c2n1	41.7 mL/min/kg						
CC[C@H](NC(=O)c1cn(-c2c(F)cccc2F)c2nc(N3C[C@@H](O)CC3=O)ccc2c1=O)C(F)(F)F	25 mL/min/kg	1.5 µg/mL (≈ 2.94 µM)					
O=C(N[C@@H](C1CC1)C(F)(F)F)c1cn(-c2c(F)cc(F)cc2F)c2nc(N3C[C@@H](O)[C@H](O)C3)ccc2c1=O	18.3 mL/min/kg	12.5 µg/mL (≈ 23 µM)	12.9 ×10⁻⁶ cm/s	15 mL/min/kg	3.7 L/kg	4.6 h	fraction unbound [9]: 0.025; fraction unbound [10]: 0.033; efflux ratio at 2 h, 2 µM [11]: 8; bioavailability [12]: 19%
O=C(NC12CC3CC(CC(C3)C1)C2)c1cn(-c2ccc(F)cc2F)c2nc(N3CCCC3)ccc2c1=O	50 mL/min/kg						
CC[C@@H](NC(=O)c1cn(-c2c(F)cccc2F)c2nc(N3C[C@@H](O)CC3=O)ccc2c1=O)C(F)(F)F	21.7 mL/min/kg	2.9 µg/mL (≈ 5.68 µM)	48.2 ×10⁻⁶ cm/s	21.7 mL/min/kg	1.7 L/kg	1.2 h	fraction unbound [9]: 0.009; fraction unbound [10]: 0.023; efflux ratio at 2 h, 2 µM [11]: 0.8; bioavailability [12]: 29%
CC[C@@H](NC(=O)c1cn(-c2c(F)cc(F)cc2F)c2nc(N3C[C@@H](O)CC3=O)ccc2c1=O)C(F)(F)F	31.7 mL/min/kg	2.2 µg/mL (≈ 4.16 µM)	43.4 ×10⁻⁶ cm/s	56.7 mL/min/kg	2.3 L/kg	0.9 h	efflux ratio at 2 h, 2 µM [11]: 0.6
CCC(NC(=O)c1cn(-c2c(F)cc(F)cc2F)c2nc(N3C[C@@H](O)[C@H](O)C3)ccc2c1=O)C(F)(F)C(F)(F)F (single isomer, unassigned; diastereomer 1)	33.3 mL/min/kg	62 µg/mL (≈ 107 µM)	8.3 ×10⁻⁶ cm/s	8.33 mL/min/kg	1.2 L/kg	2.1 h	fraction unbound [9]: 0.013; fraction unbound [10]: 0.018; bioavailability [12]: 22%
CC(C)(C)C(NC(=O)c1cn(-c2c(F)cc(F)cc2F)c2nc(N3C[C@@H](O)[C@H](O)C3)c(F)cc2c1=O)C(F)(F)C(F)(F)F (single isomer, unassigned; diastereomer 2)	51.7 mL/min/kg	0.4 µg/mL (≈ 0.638 µM)	6 ×10⁻⁶ cm/s				

Second part, led by results:

predicted hepatic blood clearance at […] [3]	solubility at 24 h [4]	Papp A→B at 2 h, 2 µM [5]	clearance [6]	Vd [7]	half-life [8]	Structure (SMILES)	also measured
43.3 mL/min/kg	0.3 µg/mL (≈ 0.59 µM)					CC[C@@H](NC(=O)c1cn(-c2ccccc2Cl)c2nc(N3C[C@@H](O)CC3=O)ccc2c1=O)C(F)(F)F	
31.7 mL/min/kg	1.1 µg/mL (≈ 2.23 µM)					CC[C@@H](NC(=O)c1cn(-c2ccccc2F)c2nc(N3C[C@@H](O)CC3=O)ccc2c1=O)C(F)(F)F	
43.3 mL/min/kg						CC[C@@H](NC(=O)c1cn(-c2c(Cl)cccc2Cl)c2nc(N3C[C@@H](O)CC3=O)ccc2c1=O)C(F)(F)F	
16.7 mL/min/kg	0.4 µg/mL (≈ 0.757 µM)	46.2 ×10⁻⁶ cm/s	20 mL/min/kg	3.5 L/kg	3.4 h	CC[C@H](NC(=O)c1cn(-c2c(F)cc(F)cc2F)c2nc(N3C[C@@H](O)CC3=O)ccc2c1=O)C(F)(F)F	fraction unbound [9]: 0.02; fraction unbound [10]: 0.03; efflux ratio at 2 h, 2 µM [11]: 0.6; bioavailability [12]: 91%
22.7 mL/min/kg	1.9 µg/mL (≈ 3.72 µM)	45.6 ×10⁻⁶ cm/s	26.7 mL/min/kg	0.8 L/kg	0.8 h	CC[C@@H](NC(=O)c1cn(-c2ccc(F)cc2F)c2nc(N3C[C@@H](O)CC3=O)ccc2c1=O)C(F)(F)F	fraction unbound [9]: 0.008; efflux ratio at 2 h, 2 µM [11]: 0.9; bioavailability [12]: 29%
31.7 mL/min/kg	< 0.1 µg/mL					CC[C@@H](NC(=O)c1cn(-c2c(Cl)cc(F)cc2Cl)c2nc(N3C[C@@H](O)CC3=O)ccc2c1=O)C(F)(F)F	
41.7 mL/min/kg	1.4 µg/mL (≈ 2.51 µM)					CC(C)(C)[C@H](NC(=O)c1cn(-c2c(F)cc(F)cc2F)c2nc(N3C[C@@H](O)[C@H](O)C3)ccc2c1=O)C(F)(F)F	
60 mL/min/kg						O=C(NC1(C(F)(F)F)CCCC1)c1cn(-c2c(F)cc(F)cc2F)c2nc(N3C[C@@H](O)[C@H](O)C3)ccc2c1=O	
58.3 mL/min/kg	0.9 µg/mL (≈ 1.66 µM)					O=C(NC1(C(F)(F)F)CCC1)c1cn(-c2c(F)cc(F)cc2F)c2nc(N3C[C@@H](O)[C@H](O)C3)ccc2c1=O	
26.7 mL/min/kg						O=C(Nc1c(Cl)cccc1Cl)c1cn(-c2ccc(F)cc2F)c2nc(N3C[C@@H](O)CC3=O)ccc2c1=O	
6.67 mL/min/kg	1.8 µg/mL (≈ 3.52 µM)					CC[C@H](NC(=O)c1cn(-c2ncc(F)cc2F)c2nc(N3C[C@@H](O)CC3=O)ccc2c1=O)C(F)(F)F	
56.7 mL/min/kg	< 0.1 µg/mL					CC[C@H](NC(=O)c1cn(-c2c(F)cc(F)cc2F)c2nc(N3CC4CC4(O)C3)ccc2c1=O)C(F)(F)F (mixture of isomers)	
13.3 mL/min/kg	54.7 µg/mL (≈ 96.6 µM)	19.3 ×10⁻⁶ cm/s	11.7 mL/min/kg	2.5 L/kg	2.1 h	CC(NC(=O)c1cn(-c2c(F)cc(F)cc2F)c2nc(N3C[C@@H](O)[C@H](O)C3)ccc2c1=O)C(F)(F)C(F)(F)F (single isomer, unassigned; diastereomer 1)	bioavailability [12]: 21%
20 mL/min/kg	11.2 µg/mL (≈ 18.7 µM)	11.3 ×10⁻⁶ cm/s	23.3 mL/min/kg	3 L/kg	1.8 h	CCC(NC(=O)c1cn(-c2c(F)cc(F)cc2F)c2nc(N3C[C@@H](O)[C@H](O)C3)c(F)cc2c1=O)C(F)(F)C(F)(F)F (single isomer, unassigned; diastereomer 1)	fraction unbound [9]: 0.006; bioavailability [12]: 48%; Tmax [13]: 6 h; half-life [14]: 4.2 h
